Laboratory results as given in US20110009335A1, “Anticancer Treatments” (priority 2008, published 2011).
Starred links: 1 amine or outer side, 2 acyl side, 3 side chain; linkers in the order of their positions; H or OH if unused. Positions of bridges follow the written chain, without caps; N, C: chain ends. Non-standard residues stand in square brackets, D forms with d. Residues, ends and D or L forms follow the SMILES beside them. *: point of attachment. X1 = CC[C@H](C)[C@@H](N[*:1])[C@@H](O)CC(=O)O[C@H](C(=O)[C@H](C)C(=O)[*:2])C(C)C; NMeY = CN[C@@H](Cc1ccc(O)cc1)C(=O)O; dNMeL = CN[C@H](CC(C)C)C(=O)O; Pyruvoyl = CC(=O)C(=O)*

Key:
Assay type in all cases: in vivo
[1] = test system: CAKI-1 human renal tumor xenograft; assay: Aplidine with sorafenib, CAKI-1 xenograft in athymic nude mice (Example 1)
Description: (§1) Female athymic nude mice (Harlan Sprague Dawley, Madison, Wis.) were utilized for all experiments. Mice were implanted with tumor fragments or a cell suspension when mice were 5 weeks of age. Animals were housed in ventilated rack caging, 5 mice per cage, with food and water ad libitum. The mice were acclimated for 1 week prior to being implanted with tumor fragments or cell suspensions.
(§2) Tumor measurements were determined by using Vernier calipers. The formula to calculate volume for a prolate ellipsoid was used to estimate tumor volume (mm^3) from 2-dimensional tumor measurements: Tumor volume (mm^3)=[L×W^2]÷2, where L is the length and it is the longest diameter in mm, and W is the width and it is the shortest diameter in mm of a tumor. Assuming unit density, volume was converted to weight (i.e., 1 mm^3=1 mg).
(§3) Body weights were recorded on treatment days and when tumor sizes were measured. In those days wherein the two drugs were administered the same day, the combination therapy groups were treated by co-administering the two drugs at the same time, with no attempt to sequence the treatments.
(§4) Aplidine was provided in the form of vials of lyophilized aplidine powder which was reconstituted in Cremophor EL/ethanol/water (CEW) 15/15/70 to a concentration of 0.5 mg/ml. Then the aplidine solution in CEW was diluted in 0.9% Saline to the dosing formulation concentrations, being the final proportion of CEW of 0.18/0.18/0.84.
(§5) Tumor size measurements were recorded twice weekly from the treatment initiation until the termination of the study.
(§6) Mean, standard deviation and standard error of the mean were determined for tumor volume for all animal groups at all assessments. Student's t test was performed on tumor volumes at each measurement day, including at the end of the study, to determine whether there were any statistically significant differences between combination treatment groups and single monotherapy treatment groups.
(§7) Determine the % of tumor growth inhibition, as 100−% T/C, for each of the drugs administered as monotherapy at the doses used in the combinations. % T/C was obtained by comparing the mean tumor weight in the treatment groups (T) to the mean tumor weight in the control group (C) (T/C×100%). • 2. The two scores were added together to determine the “expected response” if each agent produced the same response as it did when administered as monotherapy. • 3. This “expected response” was subtracted from the % of tumor growth inhibition determined for the combination therapy group: • a. A negative number meant that the effect of combining the two drugs was less than additive. • b. If the resulting number was close to zero, the effect of combining the two drugs was determined as additive. • c.

[2] = test system: LOX-IMVI human melanoma xenograft; assay: Aplidine with sorafenib, LOX-IMVI xenograft in athymic nude mice (Example 7); details: for % Inhibition G2: aplidine 0.06 mg/kg/day
Description: Female athymic nude mice (Harlan Sprague Dawley, Madison, Wis.) were utilized for all experiments. Mice were implanted with a tumor fragment when mice were 6-8 weeks of age. Animals were housed in ventilated rack caging with food and water ad libitum. The mice were acclimated for at least 5 days prior to tumor implantation.
The tumor model used in this study was LOX-IMVI, which is a human melanoma cell line obtained from the Department of Developmental Therapeutics, National Cancer Institute (NCI). Animals were implanted subcutaneously (SC) on the right flank, using a 13 gauge trocar, with 2 mm^3 of tissue tumor fragments of LOX-IMVI, from an in vivo transplantable line passage 1, using sterile Earle's Balanced Salt solution as a wetting agent.
Tumor measurements were determined as disclosed in Example 1. When tumor growth was within an average size range of 130±44 mg (mean±SD), mice were randomized into the treatment and control groups based on tumor weight by using LabCat® In Life module V 8.0 SP1 tumor tracking and measurement software.
The treatment of LOX-IMVI-tumor-bearing mice was initiated on DPI (Day Post Implantation) 11. Body weights were recorded on treatment days and when tumor sizes were measured. In those days wherein the two drugs were administered the same day, the combination therapy groups were treated by co-administering the two drugs at the same time, with no attempt to sequence the treatments.
Aplidine was provided in the form of vials of lyophilized aplidine powder which was reconstituted in Cremophor EL/ethanol/water (CEW) 15/15/70 to a concentration of 0.5 mg/ml. The aplidine solution in CEW was diluted in 0.9% Saline to the dosing formulation concentrations, being the final proportion of CEW of 0.18/0.18/0.84.
as §5, §6
The definition and criteria for the evaluation of potentiation and the degree of additivity for the combination therapy were the same as those disclose in Example 1.

[3] = test system: A498 human renal tumor xenograft; assay: Aplidine with sorafenib, A498 xenograft in athymic nude mice (Example 1)
Description: as §1
A498 cells were grown in MEM, 2 mM L-glutamine and 10% FBS. Cells from in vitro passage 4-20 were implanted SC into study mice: 5×10^6 cells/mouse in 0.2 ml 50% Matrigel/50% medium without antibiotics or serum, using a 23 G needle and 1 cc syringe. Matrigel is a biological extracellular matrix that is liquid at 4° C. and solid at 37° C., and it promotes tumor growth by maintaining the cells in close association in a localized area. Bacterial cultures were performed on aliquots of the cells prepared for implantation.
as §2, §3, §4, §5, §6, §7

[4] = aplidine 0.040 and/or sorafenib 30 mg/kg/day
[5] = aplidine 0.060 and/or sorafenib 60 mg/kg/day
[6] = G2: aplidine 0.060 mg/kg/day IP

## CC[C@H](C)[C@H]1NC(=O)[C@@H](NC(=O)[C@@H](CC(C)C)N(C)C(=O)[C@@H]2CCCN2C(=O)C(C)=O)[C@@H](C)OC(=O)[C@H](Cc2ccc(OC)cc2)N(C)C(=O)[C@@H]2CCCN2C(=O)[C@H](CC(C)C)NC(=O)[C@@H](C)C(=O)[C@H](C(C)C)OC(=O)C[C@@H]1O [aplidine, dehydrodidemnin B] (Pyruvoyl-P[dNMeL]T[X1]LP[NMeY](Me); ester 3-C)
[1]; [4]
  % T/C on day 7: 115.8%
  % T/C on day 9: 124.7%
  % T/C on day 13: 101.5%
  % T/C on day 16: 108.2%
  % T/C on day 21: 104.9%
  % T/C on day 23: 104.3%
  % T/C on day 28: 104.6%
  % T/C on day 31: 96.8%
  % T/C on day 34: 100.9%
  % T/C on day 37: 108.7%
  % T/C on day 41: 109.5%
  % T/C on day 44: 108.4%
  % T/C on day 49: 104.4%
[1]; [5]
  % T/C on day 7: 103.9%
  % T/C on day 9: 113.8%
  % T/C on day 13: 101.6%
  % T/C on day 16: 105.7%
  % T/C on day 21: 108.5%
  % T/C on day 23: 109.0%
  % T/C on day 28: 107.5%
  % T/C on day 31: 100.3%
  % T/C on day 34: 101.8%
  % T/C on day 37: 107.7%
  % T/C on day 41: 103.1%
  % T/C on day 44: 99.4%
  % T/C on day 49: 96.5%
[1]; doses and schedules tested
  antitumor activity as single agent (monotherapy): inactive
[2]; [6]
  % T/C on day 11: 102.9%
  % T/C on day 14: 82.9%
  % T/C on day 18: 79.3%
  % T/C on day 20: 98.5%
  % T/C on day 22: 102.0%
  % T/C on day 25: 105.4%
[2]; day 11
  % Inhibition G2: −2.9%
[2]; day 14
  % Inhibition G2: 17.1%
[2]; day 18
  % Inhibition G2: 20.7%
[2]; day 20
  % Inhibition G2: 1.5%
[2]; day 22
  % Inhibition G2: −2.0%
[2]; day 25
  % Inhibition G2: −5.4%
[2]; doses tested
  antitumor activity as single agent (monotherapy): inactive
[3]; [4]
  % T/C on day 26: 100.8%
  % T/C on day 29: 84.6%
  % T/C on day 33: 78.7%
  % T/C on day 36: 74.8%
  % T/C on day 40: 90.2%
  % T/C on day 43: 65.1%
  % T/C on day 47: 89.8%
  % T/C on day 50: 71.5%
  % T/C on day 54: 86.7%
  % T/C on day 61: 89.5%
[3]; [5]
  % T/C on day 26: 96.8%
  % T/C on day 29: 72.3%
  % T/C on day 33: 71.0%
  % T/C on day 36: 77.0%
  % T/C on day 40: 85.3%
  % T/C on day 43: 78.6%
  % T/C on day 47: 86.5%
  % T/C on day 50: 82.6%
  % T/C on day 54: 90.9%
  % T/C on day 61: 87.8%
[3]; doses and schedules tested
  antitumor activity as single agent (monotherapy): did not reach the NCI criteria for activity
